Measured values published in patent US20250230159A1, “FUSED HETEROCYCLIC COMPOUNDS AS MODULATORS OF RAS SIGNALLING” (Shenzhen Ionova Life Science Co., Ltd., priority 2022, published 2025).
pIC50: −log10 of the molar value. Like-named read-outs stand apart in the source and are kept apart here.

Columns and labels:
pERK in Hela cells = experiment: Phospho-ERK (p-ERK) assay in Hela cells; type: cell-based; conditions: Homo sapiens, β-actin normalized
Description: This Example illustrates that exemplary compounds of the present invention prevent KRas-mediated GTP nucleotide exchange mediated by SOS1 to inhibit KRas activity, thereby inhibiting the generation of the downstream effector pERK.
Hela cells (23,000/w) were seeded in a black clear flat bottom 96-well cell culture plate (Corning, #3904) and incubated at 37° C. overnight. At day 2, cells were dosed with compounds of Formula (I) with a 10 μM starting concentration and serially diluted 3× for a total of 9 concentrations. The cells were incubated for 1 hour with the compounds solubilized in DMSO at 37° C. Cells were immediately fixed by adding 100 μL of 8% formaldehyde to all wells in a fume hood and the plates were incubated for 1 hr at room temperature. The formaldehyde was discarded from the plates and washed 5 times and each time for 5 min with 200 μL of Triton Washing Solution (0.1% Triton in PBS) each time to permeabilize the cells. Cells were then blocked with 150 μL of Odyssey blocking buffer (LI-COR Biosciences #927-50010) at room temperature on a shaker. The blocking buffer was discarded and 50 μL of primary antibodies pERK (cell signaling Technology #4370; Rabbit, 1:500) and β-actin (AF5001; Mouse, 1:2000) diluted in Odyssey blocking buffer was added. The plates were incubated overnight at 4° C. on a shaker.
On day 3, the primary antibody solution was removed. Each plate was washed 5× times with 200 μL of 1×PBST (PBS+0.1% Tween 20) and incubated with 50 μL of secondary antibodies: Anti-Rabbit (LI-COR Biosciences #926-32211) and Anti-Mouse (LI-COR Biosciences #68070) at 1:1000 dilution in Odyssey blocking buffer at room temperature on a shaker for 1 hour (protected from light). The secondary antibody solution as removed and each plate was washed with PBST 5× times. Any liquid remaining was discarded and the plate was imaged using the Licor Odyssey machine according to the manufacturer's instruction, using a set focus length at 3.5 mm and both 800 nm and 700 nm filters. The 3-actin normalized scan values for each well were divided by the average of vehicle wells to get the % of p-ERK inhibition. The IC50 values were then calculated with the Graph pad Prism software. In general, p-ERK IC50 data are in line with the PPI IC50 data.

[1] = target: KRAS-G12C/SOS1 interaction (Homo sapiens (Human), UniProt Q07889); experiment: Protein-Protein Interaction (PPI) assay, SOS1-KRAS binding assay kit (HTRF)
Sequence of KRAS-G12C/SOS1 interaction (Q07889 whole entry, stated change not applied): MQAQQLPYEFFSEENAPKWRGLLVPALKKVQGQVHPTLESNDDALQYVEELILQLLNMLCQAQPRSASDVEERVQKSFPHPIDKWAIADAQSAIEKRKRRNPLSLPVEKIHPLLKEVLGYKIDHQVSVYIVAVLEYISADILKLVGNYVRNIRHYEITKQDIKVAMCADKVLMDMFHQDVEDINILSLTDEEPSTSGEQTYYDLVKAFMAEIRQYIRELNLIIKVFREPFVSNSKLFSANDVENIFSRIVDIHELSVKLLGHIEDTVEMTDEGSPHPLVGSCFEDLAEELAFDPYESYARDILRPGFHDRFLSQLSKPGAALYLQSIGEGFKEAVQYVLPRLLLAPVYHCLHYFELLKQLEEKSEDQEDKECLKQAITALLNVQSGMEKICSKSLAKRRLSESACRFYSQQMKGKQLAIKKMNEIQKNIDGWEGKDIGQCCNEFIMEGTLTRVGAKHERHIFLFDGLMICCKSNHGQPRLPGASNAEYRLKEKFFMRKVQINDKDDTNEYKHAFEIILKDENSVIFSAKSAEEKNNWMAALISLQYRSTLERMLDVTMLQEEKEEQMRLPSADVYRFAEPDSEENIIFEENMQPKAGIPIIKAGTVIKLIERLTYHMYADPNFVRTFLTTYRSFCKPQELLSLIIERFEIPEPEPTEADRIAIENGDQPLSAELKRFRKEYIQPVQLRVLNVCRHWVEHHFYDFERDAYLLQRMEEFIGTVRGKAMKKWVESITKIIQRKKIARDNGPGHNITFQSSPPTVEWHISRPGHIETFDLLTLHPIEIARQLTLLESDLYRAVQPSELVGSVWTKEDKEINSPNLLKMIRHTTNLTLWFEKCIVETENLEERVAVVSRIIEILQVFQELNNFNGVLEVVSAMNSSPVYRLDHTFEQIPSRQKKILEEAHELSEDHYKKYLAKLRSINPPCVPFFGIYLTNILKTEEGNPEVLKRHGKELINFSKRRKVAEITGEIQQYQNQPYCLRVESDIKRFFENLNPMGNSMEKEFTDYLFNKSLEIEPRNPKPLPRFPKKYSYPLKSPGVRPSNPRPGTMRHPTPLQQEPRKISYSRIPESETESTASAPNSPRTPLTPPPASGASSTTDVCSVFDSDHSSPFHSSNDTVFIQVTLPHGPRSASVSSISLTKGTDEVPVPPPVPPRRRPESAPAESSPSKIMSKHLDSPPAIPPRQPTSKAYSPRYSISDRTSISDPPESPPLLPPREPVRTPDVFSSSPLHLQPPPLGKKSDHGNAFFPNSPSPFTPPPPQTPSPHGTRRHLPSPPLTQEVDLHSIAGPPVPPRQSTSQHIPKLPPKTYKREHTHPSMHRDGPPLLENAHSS

| SMILES | pIC50 (pERK in Hela cells; Table 1, 1 hour with compound) | pIC50 ([1]; read-out: PPI Assay IC50) | pIC50 (pERK in Hela cells; Table 2, 1 hour with compound) | pIC50 [1] |
| --- | --- | --- | --- | --- |
| CC(=O)N1CC=C(c2cc3c(N[C@H](C)c4cccc(C(F)F)c4F)nc(C)nc3n3nnnc23)CC1 [Example 105] | > 7.00 | > 7.00 | – | – |
| CC(=O)N1CC=C(c2cc3c(N[C@H](C)c4cccc(C(F)F)c4F)ncnc3n3nnnc23)CC1 [Example 106] | > 7.00 | > 7.00 | – | – |
| CC(=O)N1CCC(O)(c2cc3c(N[C@H](C)c4cccc(C(F)F)c4F)nc(C)nc3n3cnnc23)CC1 [Example 107, (R)-1-(4-(4-((1-(3-(difluoromethyl)-2-fluorophenyl)ethyl)amino)-2-methyl-[1,2,4]triazolo[4′,3′:1,6]pyrido[2,3-d]pyrimidin-6-yl)-4-hydroxypiperidin-1-yl)ethan-1-one] | > 7.00 | > 7.00 | – | – |
| CC(=O)N1CCC(O)(c2cc3c(N[C@H](C)c4cccc(C(F)F)c4F)ncnc3n3cnnc23)CC1 [Example 108] | > 7.00 | > 7.00 | – | – |
| CC(=O)N1CCC(O)(c2cc3c(N[C@H](C)c4cccc(C(F)F)c4F)nc(C)nc3n3cnnc23)C1 (some centres unmarked) [Example 109] | < 7.00 | > 7.00 | – | – |
| CC(=O)N1CCC(O)(c2cc3c(N[C@H](C)c4cccc(C(F)F)c4F)nc(C)nc3n3nnnc23)CC1 [Example 112] | < 7.00 | > 7.00 | – | – |
| CC(=O)N1CCC(O)(c2cc3c(N[C@H](C)c4cccc(C(F)F)c4F)ncnc3n3nnnc23)CC1 [Example 113] | < 7.00 | > 7.00 | – | – |
| CC(=O)N1CCC(F)(c2cc3c(N[C@H](C)c4cccc(C(F)F)c4F)nc(C)nc3n3cnnc23)CC1 [Example 114, (R)-1-(4-(4-((1-(3-(difluoromethyl)-2-fluorophenyl)ethyl)amino)-2-methyl-[1,2,4]triazolo[4′,3′:1,6]pyrido[2,3-d]pyrimidin-6-yl)-4-fluoropiperidin-1-yl)ethan-1-one] | > 7.00 | > 7.00 | – | – |
| CC(=O)N1CCC(F)(c2cc3c(N[C@H](C)c4cccc(C(F)F)c4F)nc(C)nc3n3cnnc23)C1 (some centres unmarked) [Example 115] | < 7.00 | > 7.00 | – | – |
| CC(=O)N1CCC(F)(c2cc3c(N[C@H](C)c4cccc(C(F)F)c4F)nc(C)nc3n3nnnc23)CC1 [Example 116] | > 7.00 | > 7.00 | – | – |
| CC(=O)N1CCC(F)(c2cc3c(N[C@H](C)c4cccc(C(F)F)c4F)ncnc3n3nnnc23)CC1 [Example 117] | > 7.00 | > 7.00 | – | – |
| COC1(c2cc3c(N[C@H](C)c4cccc(C(F)F)c4F)nc(C)nc3n3cnnc23)CCN(C(C)=O)CC1 [Example 118, (R)-1-(4-(4-((1-(3-(difluoromethyl)-2-fluorophenyl)ethyl)amino)-2-methyl-[1,2,4]triazolo[4′,3′:1,6]pyrido[2,3-d]pyrimidin-6-yl)-4-methoxypiperidin-1-yl)ethan-1-one] | > 7.00 | > 7.00 | – | – |
| COC1(c2cc3c(N[C@H](C)c4cccc(C(F)F)c4F)ncnc3n3cnnc23)CCN(C(C)=O)CC1 [Example 119] | > 7.00 | > 7.00 | – | – |
| COC1(c2cc3c(N[C@H](C)c4cccc(C(F)F)c4F)nc(C)nc3n3cnnc23)CCN(C(C)=O)C1 (some centres unmarked) [Example 120] | > 7.00 | > 7.00 | – | – |
| COC1(c2cc3c(N[C@H](C)c4cccc(C(F)F)c4F)ncnc3n3cnnc23)CCS(=O)(=O)CC1 [Example 121] | > 7.00 | > 7.00 | – | – |
| COC1(c2cc3c(N[C@H](C)c4cc(N)cc(C(F)(F)F)c4)ncnc3n3cnnc23)CCN(C(C)=O)CC1 [Example 122] | > 7.00 | > 7.00 | – | – |
| COC1(c2cc3c(N[C@H](C)c4cc(N)cc(C(F)(F)F)c4)ncnc3n3cnnc23)CCOCC1 [Example 123] | > 7.00 | > 7.00 | – | – |

| SMILES | pIC50 (pERK in Hela cells; Table 1, 1 hour with compound) | pIC50 ([1]; read-out: PPI Assay IC50) | pIC50 (pERK in Hela cells; Table 2, 1 hour with compound) | pIC50 [1] |
| --- | --- | --- | --- | --- |
| COC1(c2cc3c(N[C@H](C)c4cccc(C(F)F)c4F)nc(C)nc3n3c(C)nnc23)CCN(C(C)=O)CC1 [Example 124] | > 7.00 | > 7.00 | – | – |
| COC1(c2cc3c(N[C@H](C)c4cccc(C(F)F)c4F)ncnc3n3nnnc23)CCN(C(C)=O)CC1 [Example 125] | > 7.00 | > 7.00 | – | – |
| CC(=O)N1CCC(C)(c2cc3c(N[C@H](C)c4cccc(C(F)F)c4F)nc(C)nc3n3cnnc23)CC1 [Example 127, (R)-1-(4-(4-((1-(3-(difluoromethyl)-2-fluorophenyl)ethyl)amino)-2-methyl-[1,2,4]triazolo[4′,3′:1,6]pyrido[2,3-d]pyrimidin-6-yl)-4-methylpiperidin-1-yl)ethan-1-one] | > 7.00 | > 7.00 | – | – |
| C[C@@H](Nc1ncnc2c1cc(C1(C)CCS(=O)(=O)CC1)c1nncn12)c1cccc(C(F)F)c1F [Example 129] | > 7.00 | > 7.00 | – | – |
| C[C@@H](Nc1ncnc2c1cc(C1(C)CCOCC1)c1nncn12)c1cc(N)cc(C(F)(F)F)c1 [Example 130] | < 7.00 | > 7.00 | – | – |
| CC(=O)N1CCC(C)(c2cc3c(N[C@H](C)c4cccc(C(F)F)c4F)nc(C)nc3n3nnnc23)CC1 [Example 131] | > 7.00 | > 7.00 | – | – |
| CC(=O)N1CCC(C)(c2cc3c(N[C@H](C)c4cccc(C(F)F)c4F)ncnc3n3nnnc23)CC1 [Example 132] | > 7.00 | > 7.00 | – | – |
| CC(=O)N1CCC(O)(c2cc3c(N[C@H](C)c4cccc(C(F)F)c4F)ncnc3n3c(C(F)(F)F)nnc23)CC1 [Example 135, (R)-1-(4-(4-((1-(3-(difluoromethyl)-2-fluorophenyl)ethyl)amino)-9-(trifluoromethyl)-[1,2,4]triazolo[4′,3′:1,6]pyrido[2,3-d]pyrimidin-6-yl)-4-hydroxypiperidin-1-yl)ethan-1-one] | < 7.00 | > 7.00 | – | – |
| CC(=O)N1CCC(c2cc3c(N[C@H](C)c4cccc(C(F)F)c4F)ncnc3n3cnnc23)CC1 [Example 136, (R)-1-(4-(4-((1-(3-(difluoromethyl)-2-fluorophenyl)ethyl)amino)-[1,2,4]triazolo[4′,3′:1,6]pyrido[2,3-d]pyrimidin-6-yl)piperidin-1-yl)ethan-1-one] | < 7.00 | > 7.00 | – | – |
| CC(=O)N1CCC(c2cc3c(N[C@H](C)c4cccc(C(F)F)c4F)nc(C)nc3n3cnnc23)C1 (some centres unmarked) [Example 137] | < 7.00 | > 7.00 | – | – |
| CC(=O)N1CCC(c2cc3c(N[C@H](C)c4cccc(C(F)F)c4F)nc(C)nc3n3nnnc23)CC1 [Example 142] | < 7.00 | > 7.00 | – | – |
| CC(=O)N1CCC(c2cc3c(N[C@H](C)c4cccc(C(F)F)c4F)ncnc3n3nnnc23)CC1 [Example 145] | > 7.00 | > 7.00 | – | – |
| C[C@@H](Nc1ncnc2c1cc(C1CCN(S(C)(=O)=O)CC1)c1nnnn12)c1cccc(C(F)F)c1F [Example 146] | > 7.00 | > 7.00 | – | – |
| COCC(=O)N1CCC(c2cc3c(N[C@H](C)c4cc(N)cc(C(F)(F)F)c4)nc(C)nc3n3nnnc23)CC1 [Example 147] | < 7.00 | > 7.00 | – | – |
| COCC(=O)N1CCC(c2cc3c(N[C@H](C)c4cccc(C(F)F)c4F)ncnc3n3nnnc23)CC1 [Example 148] | < 7.00 | > 7.00 | – | – |
| Cc1nc(N[C@H](C)c2cccc(C(F)F)c2F)c2cc(C3=CC[S+]([O-])CC3)c3nncn3c2n1 (stereo partly drawn) [Example 149, 4-(4-(((R)-1-(3-(difluoromethyl)-2-fluorophenyl)ethyl)amino)-2-methyl-[1,2,4]triazolo[4′,3′:1,6]pyrido[2,3-d]pyrimidin-6-yl)-3,6-dihydro-2H-thiopyran 1-oxide] | – | – | < 7.00 | < 7.00 |
| Cc1nc(N[C@H](C)c2cccc(C(F)F)c2F)c2cc(C3CC[S+]([O-])CC3)c3nncn3c2n1 (some centres unmarked) [Example 150] | < 7.00 | > 7.00 | – | – |
